≈ marks a conversion by molar mass, not a printed value. Read-outs that look alike come from different tables or passages of the source.
What was measured:
[1] = tested on: Escherichia coli VKPM (B-7935); test: Antimicrobial assay, growth inhibition (optical density); type: cell-based; conditions: E. coli, 18 h
How it was run: (§1)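 Cultures grown 24 h at 37 °C on Mueller Hinton agar; compound applied at concentrations of 100 µM and below. After 18 h, growth read at OD620 and biofilm via MTT at OD570; results expressed as percent of 1% DMSO/PBS control and given as MIC50.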

[2] = tested on: Staphylococcus aureus ATCC 21027; test: Biofilm formation assay (MTT); type: cell-based; conditions: S. aureus, 18 h
How it was run: as §1

[3] = Competitive assay with 4-hydroxytamoxifen (MTT viability); type: cell-based; conditions: human
Method: Since estrogen-dependent breast cancer MCF-7 cells were proposed to be more sensitive to compound 8, the estrogen receptor (ER) dependence of petromurin C (8) cytotoxicity to estrogen-dependent MCF-7 cells was investigated using 4-hydroxytamoxifen (4-OHT) as an ERs antagonist. MCF-7 cells were pretreated with 4-OHT at a nontoxic concentration of 0.1 µM for 1 h, and 8 at 10 µM was added for 48 h. The antagonist of estrogenic receptors, 4-hydroxytamoxifen (Lumiprobe, Moscow, Russia), was dissolved in DMSO at a concentration of 10 mM and stored with protection from light. The probe was then added to the cells at a final concentration of 1 µM. The investigated compounds were added to the cells after 1 h. Then the viability of MCF-7 cells was measured after 48 h using MTT assay (Section 4.8.3).

MCF-7 spheroids = test: Three-dimensional culture of MCF-7 cells, spheroid area; type: cell-based, human
Method: The anticancer effect of petromurin C (8) was investigated using a 3D culture of MCF-7 cells (Figure 12). MCF-7 spheroids were formed in agarose microwells using MSLA-printed stamps. Compound 8 (10 µM and 20 µM) was added 24 h after the cells were seeded.
MCF-7 cell spheroids were formed in agarose microwells as described previously. Briefly, agarose (2.8%) heated to 60 °C was added to each well of a 96-well plate, and MSLA-printed stamps with microcylinders were inserted and then removed after agarose solidification. Each well contained 34 microwells with a diameter of 300 μm. MCF-7 cells at a concentration of 2 × 10^4 cells/well were added to each well and gently centrifuged to precipitate the cells that had gathered in the microwells. Petromurin C (8) was added after 24 h, and observations were performed daily using an MIB-2-FL fluorescence microscope (Lomo Microsystems, St. Petersburg, Russia) The spheroid area was calculated using CellProfiler software v. 4.2.8 [51, 52]. In total, at least 20 of the same spheroids in each variant were analyzed daily and data were calculated as mean ± SEM.

| Growth inhibition, MIC50 [1] [µM] | MIC50 ([1]; Escherichia coli) [µM] | Biofilm formation, MIC50 [2] [µM] | SMILES | viability at 48 h, 10 µM ([3]; MCF-7 cells pretreated with 4-hydroxytamoxifen, 4-OHT 0.1 µM for 1 h, then 8 at 10 µM, read-out: viability of 4-OHT-pretreated MCF-7 cells) [%] | viability at 48 h, 10 µM ([3]; MCF-7 cells, 8 at 10 µM, no 4-OHT, read-out: viability of MCF-7 cells) [%] | decrease of spheroid area (MCF-7 spheroids; 10 µM, after 24 h) [%] | decrease of spheroid area (MCF-7 spheroids; 10 µM, after 72 h) [%] | decrease of spheroid area (MCF-7 spheroids; 20 µM, after 24 h) [%] | decrease of spheroid area (MCF-7 spheroids; 20 µM, after 72 h) [%] | decrease of the area of MCF-7 3D spheroids (MCF-7 spheroids; abstract, concentration and time not stated) |
| --- | --- | --- | --- | --- | --- | --- | --- | --- | --- | --- |
| 11.42 ± 1.02 | 7 to 11 (≈ 3.06 to 4.8 µg/mL) | 7.98 ± 0.57 | COC1=C(c2c[nH]c3ccccc23)C(=O)C(CC=C(C)C)=C(c2c[nH]c3ccccc23)C1=O [Compound 6, kumbicin D] | – | – | – | – | – | – | – |
| – | – | – | COc1c(OC)c(-c2c[nH]c3ccc(O)cc23)c(OC)c(OC)c1-c1c[nH]c2ccccc12 [Compound 8, petromurin C] | 84.4 ± 1.1 | 76.1 ± 1.6 | 19.1 | 28.9 | 29.8 | 32.6 | approximately 30% |

From article PMC12471299, “Secondary Metabolites of the Marine Sponge-Derived Fungus Aspergillus subramanianii 1901NT-1.40.2 and Their Antimicrobial and Anticancer Activities” (Marine Drugs, 2025)
